Data: patent EP0726261A1, “Herbidical 1,2,4 thiadiazoles” (American Cyanamid Company, priority 1995, dated 1996)

Legend:
Format in all cases: in vivo
Glycine max [1] = test: Herbicidal activity, preemergence test (Example 66); design: key: A rating of 0 indicates growth as untreated control; a rating of 9 indicates death; details: pre; 1000 g/ha; assessed visually twenty days after spraying
Experimental: (§1) To evaluate their herbicidal activity, compounds according to the invention are tested using a representative range of plants: ZEAMX Zea mays ORYSA Oryza sativa GLXMA Glycine max BEAVA Beta vulgaris LIUUT Linum usitatissimum AVEFA Avena fatua ECHCG Echinochloa crus-galli SINAL Sinapsis alba
(§2) The tests fall into two categories, preemergence and postemergence. The preemergence tests involve spraying a liquid formulation of the compound onto the soil in which the seeds of the plant species mentioned above have recently been sown. The postemergence tests involve spraying a liquid formulation of the compound onto seedling plants of the above species.
(§3) The soil used in the tests is a prepared horticultural loam.
(§4) The formulations used in the tests are prepared from solutions of the test compounds in acetone containing 0.4% by weight of an alkylphenol/ethylene oxide condensate available under the trademark TRITON X-155. These acetone solutions are diluted with water and the resulting formulations applied at dosage levels corresponding to 1000 g of active material per hectare in a volume equivalent to 900 litres per hectare.
(§5) In the preemergence tests, untreated sown soil, and in the postemergence tests, untreated soil bearing seedling plants, are used as controls.
(§6) The herbicidal effects of the test compounds are assessed visually twenty days after spraying the foliage and the soil and are recorded on a 0-9 scale. A rating of 0 indicates growth as untreated control, a rating of 9 indicates death. An increase of 1 unit on the linear scale approximates to an 11% increase in the level of effect.

Oryza sativa [2] = test: as above; design: key: A rating of 0 indicates growth as untreated control; a rating of 9 indicates death; details: pre; 1000 g/ha; assessed visually twenty days after spraying
Experimental: as §1, §2, §3, §4, §5, §6

Echinochloa crus-galli [3] = test: as above; design: key: A rating of 0 indicates growth as untreated control; a rating of 9 indicates death; details: pre; 1000 g/ha; assessed visually twenty days after spraying
Experimental: as §1, §2, §3, §4, §5, §6

Avena fatua [4] = test: as above; design: key: A rating of 0 indicates growth as untreated control; a rating of 9 indicates death; details: pre; 1000 g/ha; assessed visually twenty days after spraying
Experimental: as §1, §2, §3, §4, §5, §6

Zea mays [5] = test: as above; design: key: A rating of 0 indicates growth as untreated control; a rating of 9 indicates death; details: pre; 1000 g/ha; assessed visually twenty days after spraying
Experimental: as §1, §2, §3, §4, §5, §6

Beta vulgaris [6] = test: as above; design: key: A rating of 0 indicates growth as untreated control; a rating of 9 indicates death; details: pre; 1000 g/ha; assessed visually twenty days after spraying
Experimental: as §1, §2, §3, §4, §5, §6

Sinapsis alba [7] = test: as above; design: key: A rating of 0 indicates growth as untreated control; a rating of 9 indicates death; details: pre; 1000 g/ha; assessed visually twenty days after spraying
Experimental: as §1, §2, §3, §4, §5, §6

Linum usitatissimum [8] = test: as above; design: key: A rating of 0 indicates growth as untreated control; a rating of 9 indicates death; details: pre; 1000 g/ha; assessed visually twenty days after spraying
Experimental: as §1, §2, §3, §4, §5, §6

Oryza sativa [9] = test: Herbicidal activity, postemergence test (Example 66); design: key: A rating of 0 indicates growth as untreated control; a rating of 9 indicates death; details: post; 1000 g/ha; assessed visually twenty days after spraying
Experimental: as §1, §2, §3, §4, §5, §6

Echinochloa crus-galli [10] = test: as above; design: key: A rating of 0 indicates growth as untreated control; a rating of 9 indicates death; details: post; 1000 g/ha; assessed visually twenty days after spraying
Experimental: as §1, §2, §3, §4, §5, §6

Avena fatua [11] = test: as above; design: key: A rating of 0 indicates growth as untreated control; a rating of 9 indicates death; details: post; 1000 g/ha; assessed visually twenty days after spraying
Experimental: as §1, §2, §3, §4, §5, §6

Zea mays [12] = test: as above; design: key: A rating of 0 indicates growth as untreated control; a rating of 9 indicates death; details: post; 1000 g/ha; assessed visually twenty days after spraying
Experimental: as §1, §2, §3, §4, §5, §6

Beta vulgaris [13] = test: as above; design: key: A rating of 0 indicates growth as untreated control; a rating of 9 indicates death; details: post; 1000 g/ha; assessed visually twenty days after spraying
Experimental: as §1, §2, §3, §4, §5, §6

Sinapsis alba [14] = test: as above; design: key: A rating of 0 indicates growth as untreated control; a rating of 9 indicates death; details: post; 1000 g/ha; assessed visually twenty days after spraying
Experimental: as §1, §2, §3, §4, §5, §6

Linum usitatissimum [15] = test: as above; design: key: A rating of 0 indicates growth as untreated control; a rating of 9 indicates death; details: post; 1000 g/ha; assessed visually twenty days after spraying
Experimental: as §1, §2, §3, §4, §5, §6

Glycine max [16] = test: as above; details: post; 1000 g/ha; assessed visually twenty days after spraying
Experimental: as §1, §2, §3, §4, §5, §6

Row | SMILES | herbicidal effects on a 0-9 scale, GLXMA (Glycine max [1]) | herbicidal effects on a 0-9 scale, ORYSA (Oryza sativa [2]) | herbicidal effects on a 0-9 scale, ECHCG (Echinochloa crus-galli [3]) | herbicidal effects on a 0-9 scale, AVEFA (Avena fatua [4]) | herbicidal effects on a 0-9 scale, ZEAMX (Zea mays [5]) | herbicidal effects on a 0-9 scale, BEAVA (Beta vulgaris [6]) | herbicidal effects on a 0-9 scale, SINAL (Sinapsis alba [7]) | herbicidal effects on a 0-9 scale, LIUUT (Linum usitatissimum [8]) | herbicidal effects on a 0-9 scale, ORYSA (Oryza sativa [9]) | herbicidal effects on a 0-9 scale, ECHCG (Echinochloa crus-galli [10]) | herbicidal effects on a 0-9 scale, AVEFA (Avena fatua [11]) | herbicidal effects on a 0-9 scale, ZEAMX (Zea mays [12]) | herbicidal effects on a 0-9 scale, BEAVA (Beta vulgaris [13]) | herbicidal effects on a 0-9 scale, SINAL (Sinapsis alba [14]) | herbicidal effects on a 0-9 scale, LIUUT (Linum usitatissimum [15]) | herbicidal effects on a 0-9 scale, GLXMA (Glycine max [16])
1 | C[C@H](NC(=O)c1nsc(-c2ccc(Cl)cc2)n1)c1ccccc1 [Example 24] | 0 | 0 | 0 | 0 | 0 | 0 | 0 | 0 | 0 | 2 | 0 | 0 | 8 | 8 | 5 | 5
2 | CC(C)c1nsc(C(=O)N[C@@H](C)c2ccccc2)n1 [Example 10, (S)-3-Isopropyl-[1,2,4]thiadiazole-5-carboxylic acid, 1-(phenylethyl)amide] | 0 | 0 | 5 | 0 | 0 | 7 | 7 | 4 | 0 | 8 | 5 | 2 | 8 | 8 | 8 | 5
3 | C[C@H](NC(=O)c1nc(C(C)(C)C)ns1)c1ccccc1 [Example 8, (S)-3-tert-Butyl-[1,2,4]thiadiazole-5-carboxylic acid, 1-(phenylethyl)amide] | 0 | 0 | 0 | 0 | 0 | 8 | 8 | 0 | 0 | 8 | 6 | 0 | 9 | 9 | 9 | 6
4 | CC(C)Cc1nsc(C(=O)NC(C)c2cccs2)n1 (racemic) [Example 12, (R/S)-3-Isobutyl-[1,2,4]thiadiazole-5-carboxylic acid, [1-(2-thienyl)ethyl]amide] | 0 | 0 | 5 | 0 | 0 | 5 | 5 | 2 | 0 | 9 | 2 | 0 | 8 | 9 | 8 | 5
5 | CC(NC(=O)c1nc(-c2ccccc2)ns1)c1cccs1 (racemic) [Example 4, (R/S)-3-Phenyl-[1,2,4]thiadiazole-5-carboxylic acid, [1-(2-thienyl)ethyl]amide] | 0 | 0 | 0 | 0 | 0 | 0 | 0 | 0 | 0 | 8 | 5 | 0 | 8 | 8 | 7 | 5
6 | C=CCNC(=O)c1nc(-c2ccc(F)cc2)ns1 [Example 18] | 0 | 0 | 0 | 0 | 0 | 0 | 0 | 0 | 0 | 0 | 2 | 0 | 8 | 9 | 5 | 6
7 | CC(C)c1nsc(C(=O)NCc2cccs2)n1 [Example 9] | 0 | 0 | 2 | 0 | 0 | 0 | 4 | 0 | 0 | 5 | 0 | 2 | 7 | 7 | 2 | 2
